Assay results taken from US5804577A, “Cephalosporin derivatives” (Hoffmann-La Roche Inc., priority 1995, dated 1998).
Values after ≈ are worked out from the molar mass of the structure shown. Where a name gives a salt, the structure may show the parent alone. Read-outs that look alike come from different tables or passages of the source.

What was measured:
Experiment in all cases: MIC by agar dilution method in Mueller Hinton agar
Type in all cases: cell-based
Acinetobacter sp. 51-156 = details: SP.51156
Method: (§1) In vitro activity was determined by minimum inhibitory concentration in a microorganism spectrum by the agar dilution method in Mueller Hinton agar.

C. freundii 43 = details: Citrobacter freundii
Method: as §1

C. freundii 902 = details: Citrobacter freundii
Method: as §1

E. cloacae 908R = details: Enterobacter cloacae
Method: as §1

E. cloacae 908SSi = details: Enterobacter cloacae
Method: as §1

E. coli 25922 = details: Escherichia coli
Method: as §1

E. faecalis 6 = details: Enterococcus faecalis
Method: as §1

K. pneumoniae 418 = details: Klebsiella pneumoniae, 418
Method: as §1

L. monocytogenes BK23 = details: Listeria monocytogenes
Method: as §1

P. aeruginosa 27853 = details: Pseudomonas aeruginosa
Method: as §1

P. vulgaris 1028 = details: Proteus vulgaris
Method: as §1

S. agalactiae QK44 = details: Streptococcus agalactiae
Method: as §1

S. aureus 6538 = details: Staphylococcus aureus
Method: as §1

S. aureus 734 MRSA = details: Staphylococcus aureus
Method: as §1

S. marscescens 69438 = tested on: S. marscescens 69438
Method: as §1

S. viridans group 016 = details: Streptococcus viridans, GROUP016
Method: as §1

X. maltophilia 1AC739 = details: Stenotrophomonas maltophilia
Method: as §1

B. fragilis ATCC25285 = details: Bacteroides fragilis, ATCC25285
Method: as §1

C. difficile ZH1 = details: Clostridioides difficile
Method: as §1

M. catarrhalis RA21 = details: Moraxella catarrhalis
Method: as §1

M. morganii 6H-137 = details: Morganella morganii, 6H137
Method: as §1

[1] = tested on: P. asaccharolyticus 29743; details: Peptoniphilus asaccharolyticus
Method: as §1

P. mirabilis 2117 = details: Proteus mirabilis; P. mirabilis 2117; read-out: MIC
Method: as §1

[2] = Acinetobacter sp. 51-156, read-out: MIC
[3] = X. maltophilia 1AC739, read-out: MIC
[4] = C. difficile ZH1, read-out: MIC
[5] = P. vulgaris 1028, read-out: MIC
[6] = P. aeruginosa 27853, read-out: MIC
[7] = E. cloacae 908SSi, read-out: MIC
[8] = L. monocytogenes BK23, read-out: MIC

Row | Compound | MIC (C. freundii 43; C. freundii 43, read-out: MIC) [µg/mL] | MIC (C. freundii 902; 902) [µg/mL] | MIC (E. cloacae 908R; E. cloacae 908R, read-out: MIC) [µg/mL] | MIC (E. cloacae 908SSi; 908SSI) [µg/mL] | MIC (E. faecalis 6; 6) [µg/mL] | MIC (K. pneumoniae 418) [µg/mL] | MIC (L. monocytogenes BK23; BK23) [µg/mL] | MIC (P. aeruginosa 27853; 27853) [µg/mL] | MIC (P. vulgaris 1028; 1028) [µg/mL] | MIC (S. agalactiae QK44) [µg/mL] | MIC (S. aureus 6538; 6538) [µg/mL] | MIC (S. aureus 734 MRSA; MRSA) [µg/mL] | MIC (S. marscescens 69438) [µg/mL] | MIC (S. viridans group 016) [µg/mL] | MIC (Acinetobacter sp. 51-156; Acinetobacter) [µg/mL] | MIC (B. fragilis ATCC25285) [µg/mL] | MIC (E. cloacae 908R; 908R) [µg/mL] | MIC (M. catarrhalis RA21; RA21) [µg/mL] | MIC (X. maltophilia 1AC739; 1AC739) [µg/mL] | MIC (P. aeruginosa 27853; [6]) [µg/mL] | further results
1 | Nc1nc(/C(=N/O)C(=O)N[C@@H]2C(=O)N3C(C(=O)O)=C(/C=C4\CCN(c5ccc(O)c(F)c5)C4=O)CS[C@H]23)cs1 [C, (6R,7R)-7-[(Z)-2-(2-Amino-thiazol-4-yl)-2-(hydroxyimino-acetylamino]-3-[(E)-1-(3-fluoro-4-hydroxy-phenyl)-2-oxo-pyrrolidin-3-ylidenemethyl]-8-oxo-5-thia-1-azabicyclo[4.2.0]oct-2-ene-2-carboxylic acid trifluoroacetate] | 4 | 0.12 | 32 | 0.5 | 1 | 0.12 | 1 | 4 | 8 | 0.06 | 0.5 | 4 | 1 | 0.12 | – | – | – | – | – | – | MIC (Acinetobacter sp. 51-156; [2]): 32 µg/mL; MIC (E. coli 25922; 25922): 0.12 µg/mL; MIC (X. maltophilia 1AC739; [3]): > 32 µg/mL
2 | Nc1ccc(CN2CC/C(=C\C3=C(C(=O)O)N4C(=O)[C@@H](NC(=O)/C(=N\O)c5csc(N)n5)[C@H]4SC3)C2=O)cc1 [D, (6R,7R)-7-[(Z)-2-(2-Amino-thiazol-4-yl)-2-(hydroxyimino-acetylamino]-3-[(E)-1-(4-aminobenzyl)-2-oxo-pyrrolidin-3-ylidenemethyl]-8-oxo-5-thia-1-azabicyclo[4.2.0-]oct-2-ene-2-carboxylic acid trifluoroacetate] | – | – | – | 0.5 | 1 | 0.25 | 4 | > 32 | > 32 | 0.25 | 1 | 8 | 1 | 0.5 | 32 | 8 | > 32 | 4 | > 32 | – | MIC (C. difficile ZH1; [4]): 16 µg/mL; MIC (C. freundii 43; 43): 8 µg/mL; MIC (C. freundii 902; C. freundii 902, read-out: MIC): 0.25 µg/mL; MIC (E. coli 25922; E. coli 25922, read-out: MIC): 0.25 µg/mL; MIC (M. morganii 6H-137; M. morganii 6H-137, read-out: MIC): 0.12 µg/mL; MIC [1]: 1 µg/mL; MIC (P. mirabilis 2117): 0.12 µg/mL
3 | Nc1nc(/C(=N/O)C(=O)N[C@@H]2C(=O)N3C(C(=O)O)=C(/C=C4\CCN(Cc5cccc(O)c5)C4=O)CS[C@H]23)cs1 [E, (6R,7R)-7-[(Z)-2-(2-Amino-thiazol-4-yl)-2-(hydroxyimino-acetylamino]-3-[(E)-1-(3-hydroxybenzyl)-2-oxo-pyrrolidin-3-ylidenemethyl]-8-oxo-5-thia-1-azabicyclo[4.2.0]oct-2-ene-2-carboxylic acid trifluoroacetate] | 4 | 0.25 | 8 | 0.5 | 0.5 | 0.25 | 2 | 8 | – | 0.12 | – | – | 0.5 | 0.5 | 32 | 8 | – | 2 | > 32 | – | MIC (C. difficile ZH1; [4]): 4 µg/mL; MIC (P. vulgaris 1028; [5]): 16 µg/mL; MIC (S. aureus 6538; S. aureus 6538, read-out: MIC): 0.5 µg/mL; MIC (S. aureus 734 MRSA; S. aureus 734 MRSA, read-out: MIC): 16 µg/mL
4 | Nc1nc(/C(=N/O)C(=O)N[C@@H]2C(=O)N3C(C(=O)O)=C(/C=C4\CCN(c5nncs5)C4=O)CS[C@H]23)cs1 [F, (6R,7R)-7-[(Z)-2-(2-Amino-thiazol-4-yl)-2-hydroxyimino-acetylamino]-8-oxo-3-[(E)-2-oxo-1-(1,3,4-thiadiazol-2-yl)-pyrrolidin-3-ylidenemethyl]-5-thia-1-aza-bicyclo[4.2.0]oct-2-ene-2-carboxylic acid trifluoracetate (1:1)] | 8 (≈ 14.6 µM) | 0.12 (≈ 0.219 µM) | – | 1 (≈ 1.82 µM) | 1 (≈ 1.82 µM) | 0.25 (≈ 0.456 µM) | 4 (≈ 7.29 µM) | – | > 32 | 0.25 (≈ 0.456 µM) | 1 (≈ 1.82 µM) | 16 (≈ 29.2 µM) | 32 (≈ 58.3 µM) | 0.5 (≈ 0.911 µM) | > 32 | – | > 32 | > 16 | > 32 | > 32 | MIC (E. coli 25922; 25922): 0.12 µg/mL (≈ 0.219 µM); MIC (M. morganii 6H-137): 0.5 µg/mL (≈ 0.911 µM); MIC (P. mirabilis 2117): 0.25 µg/mL (≈ 0.456 µM)
5 | Nc1nc(/C(=N/O)C(=O)N[C@@H]2C(=O)N3C(C(=O)O)=C(/C=C4\CCN(C5CCNCC5)C4=O)CS[C@H]23)cs1 [G, (6R,7R)-7-[(Z)-2-(2-Amino-thiazol-4-yl)-2-hydroxyimino-acetylamino]-8-oxo-3-[(E)-2-oxo-1-piperidin-4-yl-pyrrolidin-3-ylidenemethyl]-5-thia-1-aza-bicyclo[4.2.0-]oct-2-ene-2-carboxylic acid hydrochloride (1:2)] | – | – | 4 | – | 1 | – | – | – | > 32 | 0.25 | 1 | 8 | 1 | – | 32 | 16 | – | 2 | > 32 | 8 | MIC (C. difficile ZH1; ZH1): 16 µg/mL; MIC (C. freundii 43; 43): 2 µg/mL; MIC (E. cloacae 908SSi; [7]): 0.25 µg/mL; MIC (L. monocytogenes BK23; [8]): 4 µg/mL; MIC [1]: 1 µg/mL
6 | CO/N=C(\C(=O)N[C@@H]1C(=O)N2C(C(=O)O)=C(CSc3nc(=O)c(=O)[nH]n3C)CS[C@H]12)c1csc(N)n1 [II, reference compound] | 32 (≈ 57.7 µM) | – | – | – | – | – | – | – | – | – | 4 (≈ 7.21 µM) | > 32 | – | – | – | – | > 32 | – | – | 16 (≈ 28.9 µM) | MIC (Acinetobacter sp. 51-156; [2]): 32 µg/mL (≈ 57.7 µM); MIC (C. freundii 902; C. freundii 902, read-out: MIC): 0.25 µg/mL (≈ 0.451 µM); MIC (E. cloacae 908SSi; [7]): 0.25 µg/mL (≈ 0.451 µM); MIC (E. faecalis 6; E. faecalis 6, read-out: MIC): > 32 µg/mL; MIC (L. monocytogenes BK23; [8]): > 16 µg/mL; MIC (M. catarrhalis RA21; M. catarrhalis RA21, read-out: MIC): 1 µg/mL (≈ 1.8 µM); MIC (P. vulgaris 1028; [5]): 0.12 µg/mL (≈ 0.216 µM); MIC (S. marscescens 69438; S. marscescens 69438, read-out: MIC): 0.25 µg/mL (≈ 0.451 µM); MIC (S. viridans group 016; S. viridans group 016, read-out: MIC): 0.25 µg/mL (≈ 0.451 µM); MIC (X. maltophilia 1AC739; [3]): > 32 µg/mL
